The source made the active and inactive calls.
Assays:
Fatty acid synthase [1] = target: T1, Fatty acid synthase (Homo sapiens, UniProt P49327); test: inhibition of human FAS-TE enzyme activity – biochemical, endpoint fluorescence intensity, uHTS hits, dose response (AID 624327); assay type: functional;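 also: fluorescence from hydrolysis of an O-methyl fluorescein acyl ester substrate by the enzyme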
Fatty acid synthase [2] = target: T1, Fatty acid synthase; test: inhibition of human FAS-TE enzyme activity – biochemical, kinetic fluorescence intensity, dose response (AID 624326); assay type: functional;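 also: rate of fluorescence rise from hydrolysis of a fluorogenic O-methyl fluorescein ester substrate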
[3] = intracellular Trypanosoma cruzi inhibitors in host cells – cell-based, plate reader, cherry-pick samples, set 3, dose response (AID 651818); assay type: functional;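 also: compounds incubated with infected cells for about four days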
Albumin = Albumin (Bos taurus, UniProt P02769); test: Counterscreen for inhibitors of T-cell receptor (TCR)-CD3 interaction: Fluorescence-based biochemical high throughput dose response assay to identify inhibitors of T-cell receptor (TCR)-CD3 interaction using a TAMRA-labeled BSA probe.; assay type: functional
Beta-galactosidase = Beta-galactosidase (Escherichia coli, UniProt Q8VNN2); test: Dose response counterscreen for EBI2 assay utilizing the enzyme, b-galactosidase.; assay type: functional
Mu-type opioid receptor = Mu-type opioid receptor (Homo sapiens, UniProt P35372); assay type: functional, cell-based;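 also: U2OS cells with beta-arrestin recruitment to OPRM1 by beta-gal complementation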
Chain of Mu-type opioid receptor (P35372 whole entry): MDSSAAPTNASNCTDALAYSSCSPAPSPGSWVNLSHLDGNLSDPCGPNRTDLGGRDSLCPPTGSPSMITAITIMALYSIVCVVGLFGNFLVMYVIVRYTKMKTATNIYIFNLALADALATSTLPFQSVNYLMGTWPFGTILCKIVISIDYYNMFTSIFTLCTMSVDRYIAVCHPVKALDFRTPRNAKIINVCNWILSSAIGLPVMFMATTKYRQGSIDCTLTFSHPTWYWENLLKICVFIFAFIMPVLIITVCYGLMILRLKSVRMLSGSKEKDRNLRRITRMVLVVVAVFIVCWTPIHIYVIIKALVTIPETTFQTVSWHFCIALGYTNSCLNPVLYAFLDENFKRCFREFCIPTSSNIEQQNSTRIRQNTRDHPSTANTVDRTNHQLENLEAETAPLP

[4] = target: Glucose-6-phosphate 1-dehydrogenase (Homo sapiens, UniProt P11413); test: inhibition of Homo sapiens G6PD, dose series – biochemical, fluorescence, selectivity assay for P. falciparum G6PD inhibitor project, dose response (AID 504792); assay type: functional
Chain of Glucose-6-phosphate 1-dehydrogenase (P11413 whole entry): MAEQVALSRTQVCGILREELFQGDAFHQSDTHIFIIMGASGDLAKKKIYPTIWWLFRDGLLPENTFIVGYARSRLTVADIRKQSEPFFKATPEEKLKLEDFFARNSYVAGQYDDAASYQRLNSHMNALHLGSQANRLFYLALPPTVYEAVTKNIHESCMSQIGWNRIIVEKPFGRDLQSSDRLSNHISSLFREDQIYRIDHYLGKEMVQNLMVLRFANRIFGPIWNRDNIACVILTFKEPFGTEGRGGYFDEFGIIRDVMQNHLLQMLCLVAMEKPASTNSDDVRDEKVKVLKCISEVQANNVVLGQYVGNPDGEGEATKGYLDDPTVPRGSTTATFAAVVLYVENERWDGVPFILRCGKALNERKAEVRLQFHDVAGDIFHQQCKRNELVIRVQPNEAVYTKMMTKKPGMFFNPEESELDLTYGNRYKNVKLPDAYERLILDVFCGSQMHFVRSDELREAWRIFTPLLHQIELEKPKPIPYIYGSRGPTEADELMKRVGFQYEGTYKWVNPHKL

[5] = target: 5-hydroxytryptamine receptor 2A (Mus musculus, UniProt P35363); assay type: functional, cell-based;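 also: CHO-K1 cells with tagged receptor and beta-arrestin; agonist potency measured as compound-induced activation of the receptor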
Chain of 5-hydroxytryptamine receptor 2A (P35363 whole entry): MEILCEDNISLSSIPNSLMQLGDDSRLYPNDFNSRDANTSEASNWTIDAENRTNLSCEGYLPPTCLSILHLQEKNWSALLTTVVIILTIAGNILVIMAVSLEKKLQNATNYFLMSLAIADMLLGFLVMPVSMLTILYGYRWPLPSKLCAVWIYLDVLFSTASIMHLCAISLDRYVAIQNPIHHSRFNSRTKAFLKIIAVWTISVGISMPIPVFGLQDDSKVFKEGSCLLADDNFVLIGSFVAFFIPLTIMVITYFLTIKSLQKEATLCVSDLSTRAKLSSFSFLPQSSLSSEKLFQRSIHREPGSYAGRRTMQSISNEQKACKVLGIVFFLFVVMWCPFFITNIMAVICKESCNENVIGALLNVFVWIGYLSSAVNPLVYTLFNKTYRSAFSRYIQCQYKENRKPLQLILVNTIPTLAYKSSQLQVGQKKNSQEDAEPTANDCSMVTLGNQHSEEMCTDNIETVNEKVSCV

Streptococcus = test: GAS UMAA2166 growth inhibition – luminescence, BacTiterGlo, counter-screen for streptokinase expression inhibitor project, dose response (AID 1915); assay type: functional, organism-based;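 also: potency for reduction of bacterial viability or growth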
Vero = test: cells; assay type: functional; settings: Chlorocebus sabaeus
[6] = target: ATP-dependent molecular chaperone HSP82 (Candida albicans (strain WO-1) (Yeast), UniProt C4YTQ8); test: steroid-induced GRE reporter decrease in yeast – S. cerevisiae, luminescence, Hsp90 inhibitor project, dose response (AID 2400); assay type: functional, cell-based;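 also: beta-galactosidase luminescence from glucocorticoid response element reporter as proxy for Hsp90 function; inhibitor potency where signal loss means Hsp90 inhibition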
[7] = target: T2, Probable nicotinate-nucleotide adenylyltransferase (Staphylococcus aureus (strain N315), UniProt P65502); assay type: functional, Staphylococcus aureus subsp. aureus N315;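 as to IC50 Mean: confirmatory dose-response retesting of NadD inhibitor hits first found in an ultra-high-throughput screen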
T2 sequence (P65502 whole entry): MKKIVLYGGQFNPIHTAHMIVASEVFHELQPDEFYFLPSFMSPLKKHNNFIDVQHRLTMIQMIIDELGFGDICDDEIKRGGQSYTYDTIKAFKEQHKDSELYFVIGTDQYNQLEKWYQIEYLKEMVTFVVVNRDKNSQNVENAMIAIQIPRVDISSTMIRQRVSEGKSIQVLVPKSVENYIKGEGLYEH

[8] = target: T3, Serine/threonine-protein phosphatase (Candida dubliniensis (strain CD36 / CBS 7987 / NCPF 3949 / NRRLY-17841) (Yeast), UniProt B9W6M3); test: blockers of CaCl2-induced CDRE-lacZ signaling – S. cerevisiae, luminescence, secondary, dose response (AID 2388); assay type: functional, cell-based;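 also: yeast reporter cells carrying a calcineurin-responsive lacZ construct stimulated with calcium chloride; luminescent beta-galactosidase reporter signal in whole cells rather than isolated phosphatase activity; potency for inhibition where a drop in reporter signal means calcineurin blockade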
T3 sequence (B9W6M3 whole entry): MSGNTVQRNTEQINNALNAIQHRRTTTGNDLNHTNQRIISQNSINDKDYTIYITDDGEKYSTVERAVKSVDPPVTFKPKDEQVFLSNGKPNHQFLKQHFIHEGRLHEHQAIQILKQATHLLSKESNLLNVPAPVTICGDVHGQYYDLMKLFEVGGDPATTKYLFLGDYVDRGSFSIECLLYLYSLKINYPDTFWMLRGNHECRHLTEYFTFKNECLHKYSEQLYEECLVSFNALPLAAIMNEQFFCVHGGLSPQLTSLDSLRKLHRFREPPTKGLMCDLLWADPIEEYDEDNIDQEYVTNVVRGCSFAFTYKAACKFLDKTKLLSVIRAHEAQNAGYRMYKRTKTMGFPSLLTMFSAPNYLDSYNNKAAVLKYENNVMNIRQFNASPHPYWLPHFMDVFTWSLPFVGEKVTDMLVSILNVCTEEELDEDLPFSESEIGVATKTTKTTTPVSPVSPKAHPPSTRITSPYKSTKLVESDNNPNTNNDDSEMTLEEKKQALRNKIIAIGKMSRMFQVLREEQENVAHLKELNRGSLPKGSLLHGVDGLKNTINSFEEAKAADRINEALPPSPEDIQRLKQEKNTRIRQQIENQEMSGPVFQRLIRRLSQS

[9] = NIH-3T3 fibroblast cytotoxicity, dose response, cytotoxicity control, cell-based, fluorescence, Alamar Blue, secondary assay (AID 2327); assay type: functional;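 also: NIH-3T3 mouse fibroblasts cultured with fluconazole at 8 µg/mL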
[10] = target: T2, Probable nicotinate-nucleotide adenylyltransferase; assay type: functional, Staphylococcus aureus subsp. aureus N315; settings: read-out: IC50_Mean
[11] = test system: Streptococcus sp. 'group A'; test: Streptococcus pyogenes SK(-)GAS viability under kanamycin – luminescence, BacTiterGlo, confirmation, counter-screen for streptokinase expression inhibitor project, dose response (AID 1900); assay type: functional, organism-based
[12] = fluconazole-exposed Candida albicans growth modulators – fluorescence, retest, confirmation (AID 2467); assay type: functional, cell-based
Genome polyprotein = Genome polyprotein (dengue virus type 2, UniProt P29990); test: flavivirus cap methylation enzyme inhibition – biochemical, confirmation dose response, primary screen (AID 588689); assay type: functional
Chain of Genome polyprotein (P29990 2492-3391 limits assumed): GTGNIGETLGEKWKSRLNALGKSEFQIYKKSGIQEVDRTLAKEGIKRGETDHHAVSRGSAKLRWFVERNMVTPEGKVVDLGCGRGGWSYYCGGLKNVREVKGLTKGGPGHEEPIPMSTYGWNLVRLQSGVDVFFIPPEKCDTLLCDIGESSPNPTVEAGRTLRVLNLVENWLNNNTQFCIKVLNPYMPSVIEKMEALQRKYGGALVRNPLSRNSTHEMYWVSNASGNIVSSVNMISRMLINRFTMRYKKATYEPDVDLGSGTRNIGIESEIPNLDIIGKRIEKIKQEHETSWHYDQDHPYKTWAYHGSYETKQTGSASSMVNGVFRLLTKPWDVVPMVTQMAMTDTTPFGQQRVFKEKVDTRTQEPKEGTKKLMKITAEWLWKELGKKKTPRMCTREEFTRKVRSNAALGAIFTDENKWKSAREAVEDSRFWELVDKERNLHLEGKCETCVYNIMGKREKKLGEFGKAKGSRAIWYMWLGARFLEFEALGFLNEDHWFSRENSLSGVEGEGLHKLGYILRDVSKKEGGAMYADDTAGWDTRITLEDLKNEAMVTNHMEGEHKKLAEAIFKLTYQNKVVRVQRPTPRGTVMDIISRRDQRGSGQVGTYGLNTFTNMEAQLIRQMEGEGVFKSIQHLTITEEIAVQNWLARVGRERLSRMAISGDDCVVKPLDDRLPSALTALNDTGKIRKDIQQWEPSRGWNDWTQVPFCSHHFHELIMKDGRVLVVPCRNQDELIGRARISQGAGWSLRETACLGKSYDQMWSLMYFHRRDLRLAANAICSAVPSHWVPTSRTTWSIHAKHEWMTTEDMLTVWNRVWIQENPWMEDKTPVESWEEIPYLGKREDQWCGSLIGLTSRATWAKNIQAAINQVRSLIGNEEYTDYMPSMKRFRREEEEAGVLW

[13] = Luminescence Cell-Based Dose Response HTS to Identify Inhibitors of 5'UTR Stem-Loop Driven Prion Protein mRNA Translation in H4 Neuroglioblastoma Cells. [Related pubchem assays: 1827 (Project Summary), 1813 (Primary HTS)]; assay type: functional
[14] = alpha-synuclein stem-loop luciferase translation blockers – H4 neuroglioma cells, luminescence, confirmation (AID 1988); assay type: functional, cell-based
[15] = blockers of HIV-1 ZM109 envelope-driven cell-cell fusion – HeLa effector, CEM target cells, luciferase, cherry-pick, dose response (AID 652058); assay type: functional, cell-based;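 also: luciferase signal from HIV-1 Env mediated cell-cell fusion of effector and target cells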
[16] = blockers of HIV-1 envelope-mediated cell-cell fusion – cherry-pick, dose response (AID 652057); assay type: functional, cell-based
INS1 = test: INS-1E survival protection against cytokine death – cell-based, luminescence, retest, dose response (AID 449756); assay type: functional; settings: Rattus norvegicus;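 also: cell death triggered by IL-1 beta plus TNF-alpha plus IFN-gamma mixture; protective hits raise ATP signal compared with cytokine alone wells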
[17] = viability loss in CEM21 cells – cell-based, CellTiter-Glo luminescence, cherry-picked, cytotoxicity control for viral fusion inhibitor project, dose response (AID 652042); assay type: functional;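 also: potency for signal decrease meaning cytotoxicity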
[18] = HIV-1 AD8 envelope cell-cell fusion blockers – cherry-pick, dose response (AID 652062); assay type: functional, cell-based;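 also: luciferase signal from cell-cell fusion driven by HIV-1 clade B AD8 Env; potency is for inhibitors of fusion seen as a drop in luminescence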
[19] = luciferase reporter signal suppression in cells – H4 neuroglioma cells, luminescence, dose response (AID 1990); assay type: functional, cell-based
HEK293 = test: EBV LMP1 TES2 canonical NF-kB signalling blockers – cell-based, HEK293, luciferase, cherry-pick, dose response (AID 588343); assay type: functional; settings: Homo sapiens

T1 sequence (P49327 whole entry): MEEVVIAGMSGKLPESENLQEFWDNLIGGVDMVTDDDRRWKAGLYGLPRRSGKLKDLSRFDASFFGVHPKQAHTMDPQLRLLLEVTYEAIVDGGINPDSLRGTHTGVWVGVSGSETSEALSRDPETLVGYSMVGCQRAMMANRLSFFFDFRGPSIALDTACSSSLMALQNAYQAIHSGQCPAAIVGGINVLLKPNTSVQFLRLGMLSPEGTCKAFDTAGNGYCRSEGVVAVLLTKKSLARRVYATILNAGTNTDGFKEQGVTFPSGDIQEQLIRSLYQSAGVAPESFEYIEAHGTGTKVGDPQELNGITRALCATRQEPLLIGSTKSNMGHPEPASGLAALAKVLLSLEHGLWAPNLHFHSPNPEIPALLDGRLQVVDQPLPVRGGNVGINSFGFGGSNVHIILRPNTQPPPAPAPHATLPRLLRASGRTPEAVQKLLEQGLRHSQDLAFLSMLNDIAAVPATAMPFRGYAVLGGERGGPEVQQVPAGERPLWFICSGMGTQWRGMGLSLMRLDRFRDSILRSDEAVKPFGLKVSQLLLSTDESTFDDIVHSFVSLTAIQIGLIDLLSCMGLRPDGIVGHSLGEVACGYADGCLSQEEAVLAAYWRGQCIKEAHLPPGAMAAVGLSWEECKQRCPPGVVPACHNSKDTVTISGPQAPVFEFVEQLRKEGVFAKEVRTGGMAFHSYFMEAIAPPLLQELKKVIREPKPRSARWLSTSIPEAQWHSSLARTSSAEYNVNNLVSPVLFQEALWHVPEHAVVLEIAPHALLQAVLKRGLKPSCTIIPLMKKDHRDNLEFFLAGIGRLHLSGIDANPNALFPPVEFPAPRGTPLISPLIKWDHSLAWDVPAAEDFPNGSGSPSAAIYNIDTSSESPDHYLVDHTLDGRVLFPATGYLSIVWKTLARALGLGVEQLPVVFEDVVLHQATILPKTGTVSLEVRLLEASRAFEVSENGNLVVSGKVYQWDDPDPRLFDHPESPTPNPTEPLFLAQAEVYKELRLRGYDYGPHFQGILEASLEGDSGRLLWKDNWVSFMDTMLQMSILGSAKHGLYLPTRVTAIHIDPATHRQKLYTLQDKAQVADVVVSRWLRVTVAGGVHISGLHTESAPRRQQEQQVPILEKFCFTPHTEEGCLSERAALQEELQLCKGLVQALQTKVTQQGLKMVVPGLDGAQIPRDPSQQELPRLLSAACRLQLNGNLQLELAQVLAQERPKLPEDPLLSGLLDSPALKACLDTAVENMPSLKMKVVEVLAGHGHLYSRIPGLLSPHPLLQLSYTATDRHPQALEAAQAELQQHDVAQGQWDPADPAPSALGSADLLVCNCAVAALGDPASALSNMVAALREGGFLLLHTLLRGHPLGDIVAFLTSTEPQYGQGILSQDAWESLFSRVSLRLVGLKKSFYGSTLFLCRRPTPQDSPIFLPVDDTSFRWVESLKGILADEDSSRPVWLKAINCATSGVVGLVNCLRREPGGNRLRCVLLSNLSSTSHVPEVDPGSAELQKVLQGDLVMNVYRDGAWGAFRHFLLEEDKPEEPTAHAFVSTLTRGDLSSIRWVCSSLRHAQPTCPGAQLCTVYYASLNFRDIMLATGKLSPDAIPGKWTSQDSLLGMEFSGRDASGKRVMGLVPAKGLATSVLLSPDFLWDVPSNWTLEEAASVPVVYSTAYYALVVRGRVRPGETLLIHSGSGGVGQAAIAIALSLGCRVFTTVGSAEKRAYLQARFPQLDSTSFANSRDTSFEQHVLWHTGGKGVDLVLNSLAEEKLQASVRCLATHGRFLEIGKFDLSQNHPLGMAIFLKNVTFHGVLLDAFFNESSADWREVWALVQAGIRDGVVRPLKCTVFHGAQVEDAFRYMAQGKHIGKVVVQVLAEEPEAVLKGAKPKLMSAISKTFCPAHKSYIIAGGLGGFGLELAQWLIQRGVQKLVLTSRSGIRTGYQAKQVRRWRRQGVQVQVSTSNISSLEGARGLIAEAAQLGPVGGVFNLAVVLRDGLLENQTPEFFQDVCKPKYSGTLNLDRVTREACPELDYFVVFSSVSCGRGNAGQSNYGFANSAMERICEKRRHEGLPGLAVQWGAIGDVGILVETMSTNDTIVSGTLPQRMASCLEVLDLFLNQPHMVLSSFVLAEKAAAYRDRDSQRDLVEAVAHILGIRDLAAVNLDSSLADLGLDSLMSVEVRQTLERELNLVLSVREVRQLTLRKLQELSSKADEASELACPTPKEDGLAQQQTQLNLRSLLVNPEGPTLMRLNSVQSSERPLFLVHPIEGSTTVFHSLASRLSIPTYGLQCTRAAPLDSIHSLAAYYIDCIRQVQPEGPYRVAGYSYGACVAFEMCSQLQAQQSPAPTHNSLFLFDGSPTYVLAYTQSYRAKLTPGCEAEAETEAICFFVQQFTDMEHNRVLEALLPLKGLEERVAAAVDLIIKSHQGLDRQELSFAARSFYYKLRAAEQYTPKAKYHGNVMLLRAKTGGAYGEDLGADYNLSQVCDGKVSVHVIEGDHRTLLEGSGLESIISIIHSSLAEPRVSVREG

N#CC(CCc1ccccc1[N+](=O)[O-])(CCc1ccccc1[N+](=O)[O-])C(N)=O
IC50 (Fatty acid synthase [1]): 11.4 µM (active) | IC50 (Fatty acid synthase [2]): 12 µM (active)

C[C@H]1CN([C@@H](C)CO)C(=O)Cc2cc(NC(=O)Nc3cccc4ccccc34)ccc2O[C@@H]1CN(C)Cc1ccc(-c2ccccc2)cc1
AC50 [3]: 7.08 µM (active)

CC(=O)c1ccc(NC(=O)CN2C(=O)/C(=C/C(C)=C/c3ccccc3)SC2=S)cc1
IC50 (Albumin): > 94.1 µM (inactive)

C=CCOc1ccc(C(=O)/C=C2/C(=O)Nc3ccccc32)cc1
IC50 (Beta-galactosidase): > 80 µM (inactive)

NC1CCc2cc(O)c(O)cc2C1 (stereo unspecified)
EC50 (Mu-type opioid receptor): 92.5 µM (inactive) | IC50 [4]: > 80 µM (inactive) | EC50 [5]: 0.0131 µM (active)

C[C@@H]1CN([C@@H](C)CO)C(=O)Cc2cc(NC(=O)Nc3ccc(F)cc3)ccc2O[C@@H]1CN(C)Cc1ccc(C(F)(F)F)cc1
AC50 [3]: 4.91 µM (active)

Cc1cccc2sc(NNC(=O)c3cc(-c4cccs4)nc4ccccc34)nc12
EC50 (Streptococcus): 2.14 µM (active) | CC50 (Vero): 11.5 µM (active) | EC50 [6]: 16.2 µM (active) | IC50 [7]: 13.3 µM (active) | EC50 [8]: > 180 µM (inactive) | EC50 [9]: 10.7 µM (inconclusive) | IC50 [10]: 26.7 µM (active) | EC50 [11]: 0.889 µM (active) | EC50 [12]: 0.507 µM (active)

Cc1ccc2[nH]c(SCC(=O)Nc3ccc(F)c([N+](=O)[O-])c3)nc2c1
IC50 (Fatty acid synthase [1]): 6.64 µM (active) | IC50 (Fatty acid synthase [2]): 8 µM (active)

CN(c1ccc(C(=O)N2CCN(Cc3ccccc3)CC2)cc1)S(=O)(=O)c1ccc(Cl)cc1
EC50 (Mu-type opioid receptor): 92.4 µM (inactive) | EC50 [5]: 2.82 µM (active)

CC1(C(=O)Nc2ccc(Cl)c(Cl)c2)CCN1C(=O)CC1CCCC1 (stereo unspecified)
IC50 (Fatty acid synthase [1]): 8.5 µM (active) | IC50 (Fatty acid synthase [2]): 4.39 µM (active)

[O-][S+](c1ccccc1O)[S+]([O-])c1ccccc1O (stereo unspecified)
IC50 (Genome polyprotein): 68 µM (active) | IC50 [7]: 3.33 µM (active) | IC50 [4]: 54.1 µM (inactive) | IC50 [10]: 9.15 µM (active)

CCCc1cc(=O)n2ncc(-c3ccc(Cl)cc3)c2[nH]1
EC50 (Streptococcus): 5.62 µM (active) | EC50 [13]: 12.3 µM (active) | EC50 [14]: 10.9 µM (active) | AC50 [15]: 7.51 µM (active) | AC50 [16]: 2.65 µM (active) | AC50 (INS1): 5.79 µM (active) | AC50 [17]: 4.59 µM (active) | EC50 [11]: 1.71 µM (active) | AC50 [18]: 11.2 µM (active) | EC50 [19]: 11.6 µM (active) | AC50 (HEK293): 4.07 µM (active)

COC(=O)C1CCN(CCCOc2ccc(CN3CCN(c4ccc([N+](=O)[O-])cc4)CC3)cc2)CC1
EC50 (Mu-type opioid receptor): 92.6 µM (inactive) | EC50 [5]: 0.57 µM (active)
